How the values were obtained:
[1] = Dynamic vapor sorption/desorption (DVS) hygroscopicity; type: physicochemical
Method: The hygroscopicity of salts, solvates and polymorphs of the invention can be assessed by both static and dynamic hygroscopicity studies. For the latter, dynamic vapor sorption/desorption (DVS) experiments can be performed on an SGA-100 gravimetric sorption analyzer (or similar). The experimental protocol typically included full weight equilibrium at 0% RH.
The hygroscopicity of compound 298.HCl.H2O was assessed by both static and dynamic vapor sorption/desorption (DVS) experiments were performed at 25° C. according to Method 4M.

[2] = Static hygroscopicity study; type: physicochemical; settings: 3 months, 80% RH, 25° C.
Method: The static hygroscopicity study was performed by exposing compound 298.HCl.H2O for a period of 3 months to 80% RH humidity at 25° C. […] The sample was analyzed at 1-week, 1-month, 2-month and 3-month time points by the following methods: DSC, thermogravimetric analysis and Karl-Fischer titrimetry.

[3] = Stability testing of compound 298.HCl.H2O at storage conditions; type: physicochemical
Source text: For determining the stability of an active pharmaceutical ingredient (API) or a pharmaceutical composition, the approach as outlined for regulatory purposes in International Conference on Harmonisation of Technical Requirements for Registration of Pharmaceuticals for Human Use (ICH) Q1A Guideline: Stability Testing of New Drug Substances and Products, February 2003, can be followed. In summary, this entails repetition of certain analytical tests on samples stored at three representative controlled conditions to ascertain whether or not any degradation or loss of potency has occurred. The typical conditions employed are: (1) 25° C.±2° C., 60%±5% relative humidity (RH); (2) 30° C.±2° C., 65%±5% RH; (3) 40° C.±2° C., 75%±5% RH (often termed accelerated stability). The photostability as outlined in International Conference on Harmonisation of Technical Requirements for Registration of Pharmaceuticals for Human Use (ICH) Q1B Guideline: Stability Testing: Photostability Testing of New Drug Substances and Products, November 1996, is typically also investigated.
The purpose of this procedure is to determine the purity of representative salts, solvates and polymorphs of the invention by reverse phase HPLC. Any appropriate detection method compatible with HPLC can be utilized, such as single or dual wavelength ultraviolet (UV) detection, evaporative light scattering detection (ELSD) or chemiluminescent nitrogen detection (CLND). For most cases, UV detection would be preferred. Purity can be determined by peak area %. The same assay conditions are used to determine the level of impurities and the potency. The parameters for this HPLC assay are delineated below.
Moisture level is determined by Karl Fischer titrimetry using the direct titration method, in accordance with USP <921 1a>.

[4] = rat, in vivo, sc
Method: Formulations A, B-1, B-2 and B-3 were administered to male Sprague-Dawley rats subcutaneously (sc) at a dosing volume of 5 mL/kg.
Blood was collected via the JVC into tubes containing sodium EDTA (NaEDTA) and placed on ice until centrifugation. Samples were centrifuged at 13,000 rpm for 5 min with the temperature maintained at 4° C. Plasma was separated and stored frozen on dry ice prior to analysis.
The pharmacokinetic (PK) parameters for each animal were calculated using non-compartmental modeling (extravascular input model) and WinNonlin software (version 5.2, Pharsight). The half-life (t1/2), Area Under the Concentration Versus Time Curve from time 0 to the last quantifiable point (AUC0-t) and to infinity (AUC0-∞) were calculated and the observed Cmax and Tmax tabulated for each animal and dose group. […] The terminal elimination rate constant was calculated for the purpose of obtaining the extrapolated AUC0-∞ values.

GH secretion = settings: animal models; cited from earlier work
[5] = humans, unspecified formulation; cited from earlier work
POI = settings: unspecified formulation; cited from earlier work
diabetic gastroparesis = settings: unspecified formulation; cited from earlier work
[6] = Solubility of compound 298 salts, HPLC-CLND; settings: 20 mg compound 298 + 0.5 mL aqueous acid (1.1 eq), agitated 72 h
Method: The pH of the solution was then measured and the amount of dissolved salt determined by HPLC-CLND analysis.

[7] = Batch 1, 25° C., 60% RH, 12 mos
[8] = Batch 1, 25° C., 60% RH, 18 mos
[9] = Batch 1, 25° C., 60% RH, 24 mos
[10] = Example 3, 25° C., 60% RH, 0 mos
[11] = Example 3, 25° C., 60% RH, 3 mos
[12] = Example 3, 25° C., 60% RH, 6 mos
[13] = Example 3, 25° C., 60% RH, 9 mos
[14] = Example 3, 25° C., 60% RH, 12 mos
[15] = Example 3, 25° C., 60% RH, 18 mos
[16] = Example 3, 40° C., 75% RH, 0 mos
[17] = Example 3, 40° C., 75% RH, 1 mos
[18] = Example 3, 40° C., 75% RH, 3 mos
[19] = Example 3, 40° C., 75% RH, 6 mos

CC1CNC(C2CC2)C(=O)N(C)C(C)C(=O)NC(Cc2ccc(F)cc2)C(=O)NCCCc2ccccc2O1.Cl.O (stereo not drawn) [Compound 298•HCl•H2O]
Hygroscopicity [1]: Non-hygroscopic
Hygroscopicity ([1]; DVS, 25° C.): essentially non-hygroscopic
Weight change ([1]; DVS, 25° C., 20%-90% relative humidity range): 1%
Weight loss (lattice water lost) ([1]; DVS, 25° C., equilibration at 0% RH): 2.6%
Deliquescence [2]: No deliquescence was detected
Hygroscopicity ([2]; static study): essentially non-hygroscopic
HPLC Assay (% Purity) ([3]; Batch 1, 5° C., 0 mos): 100.48%
Total Impurities (%) ([3]; Batch 1, 5° C., 0 mos): 0.41%
HPLC Assay (% Purity) ([3]; Batch 1, 5° C., 3 mos): 98.72%
Total Impurities (%) ([3]; Batch 1, 5° C., 3 mos): 0.39%
HPLC Assay (% Purity) ([3]; Batch 1, 5° C., 6 mos): 98.48%
Total Impurities (%) ([3]; Batch 1, 5° C., 6 mos): 0.42%
HPLC Assay (% Purity) ([3]; Batch 1, 5° C., 9 mos): 100.78%
Total Impurities (%) ([3]; Batch 1, 5° C., 9 mos): 0.47%
HPLC Assay (% Purity) ([3]; Batch 1, 5° C., 12 mos): 98.19%
Total Impurities (%) ([3]; Batch 1, 5° C., 12 mos): 0.42%
HPLC Assay (% Purity) ([3]; Batch 1, 5° C., 18 mos): 98.68%
Total Impurities (%) ([3]; Batch 1, 5° C., 18 mos): 0.43%
HPLC Assay (% Purity) ([3]; Batch 1, 5° C., 24 mos): 100.15%
Total Impurities (%) ([3]; Batch 1, 5° C., 24 mos): 0.43%
HPLC Assay (% Purity) ([3]; Batch 1, 25° C., 60% RH, 0 mos): 100.48%
Total Impurities (%) ([3]; Batch 1, 25° C., 60% RH, 0 mos): 0.41%
HPLC Assay (% Purity) ([3]; Batch 1, 25° C., 60% RH, 1 mos): 98.99%
Total Impurities (%) ([3]; Batch 1, 25° C., 60% RH, 1 mos): 0.40%
HPLC Assay (% Purity) ([3]; Batch 1, 25° C., 60% RH, 3 mos): 98.39%
Total Impurities (%) ([3]; Batch 1, 25° C., 60% RH, 3 mos): 0.40%
HPLC Assay (% Purity) ([3]; Batch 1, 25° C., 60% RH, 6 mos): 98.81%
Total Impurities (%) ([3]; Batch 1, 25° C., 60% RH, 6 mos): 0.42%
HPLC Assay (% Purity) ([3]; Batch 1, 25° C., 60% RH, 9 mos): 100.65%
Total Impurities (%) ([3]; Batch 1, 25° C., 60% RH, 9 mos): 0.46%
HPLC Assay (% Purity) [3, 7]: 97.59%
Total Impurities (%) [3, 7]: 0.49%
HPLC Assay (% Purity) [3, 8]: 99.81%
Total Impurities (%) [3, 8]: 0.21%
HPLC Assay (% Purity) [3, 9]: 100.24%
Total Impurities (%) [3, 9]: 0.48%
HPLC Assay (% Purity) ([3]; Batch 1, 40° C., 75% RH, 0 mos): 100.48%
Total Impurities (%) ([3]; Batch 1, 40° C., 75% RH, 0 mos): 0.41%
HPLC Assay (% Purity) ([3]; Batch 1, 40° C., 75% RH, 1 mos): 98.49%
Total Impurities (%) ([3]; Batch 1, 40° C., 75% RH, 1 mos): 0.39%
HPLC Assay (% Purity) ([3]; Batch 1, 40° C., 75% RH, 3 mos): 98.22%
Total Impurities (%) ([3]; Batch 1, 40° C., 75% RH, 3 mos): 0.40%
HPLC Assay (% Purity) ([3]; Batch 1, 40° C., 75% RH, 6 mos): 98.41%
Total Impurities (%) ([3]; Batch 1, 40° C., 75% RH, 6 mos): 0.44%
HPLC Assay (% Purity) [3, 10]: 99.9%
Potency Assay (HPLC wt %) [3, 10]: 89.1 wt %
Total Impurities (%) [3, 10]: 0.06%
Water Content (%) [3, 10]: 3.9%
HPLC Assay (% Purity) [3, 11]: 99.9%
Potency Assay (HPLC wt %) [3, 11]: 90.2 wt %
Total Impurities (%) [3, 11]: 0.12%
Water Content (%) [3, 11]: 4.2%
HPLC Assay (% Purity) [3, 12]: 99.9%
Potency Assay (HPLC wt %) [3, 12]: 90.1 wt %
Total Impurities (%) [3, 12]: 0.07%
Water Content (%) [3, 12]: 4.1%
HPLC Assay (% Purity) [3, 13]: 99.9%
Potency Assay (HPLC wt %) [3, 13]: 90.5 wt %
Total Impurities (%) [3, 13]: 0.06%
Water Content (%) [3, 13]: 4.3%
HPLC Assay (% Purity) [3, 14]: 99.9%
Potency Assay (HPLC wt %) [3, 14]: 89.9 wt %
Total Impurities (%) [3, 14]: 0.06%
Water Content (%) [3, 14]: 3.1%
HPLC Assay (% Purity) [3, 15]: 99.8%
Potency Assay (HPLC wt %) [3, 15]: 89.8 wt %
Total Impurities (%) [3, 15]: 0.07%
Water Content (%) [3, 15]: 4.0%
HPLC Assay (% Purity) [3, 16]: 99.9%
Potency Assay (HPLC wt %) [3, 16]: 89.1 wt %
Total Impurities (%) [3, 16]: 0.06%
Water Content (%) [3, 16]: 3.9%
HPLC Assay (% Purity) [3, 17]: 99.8%
Potency Assay (HPLC wt %) [3, 17]: 88.4 wt %
Total Impurities (%) [3, 17]: 0.18%
Water Content (%) [3, 17]: 3.5%
HPLC Assay (% Purity) [3, 18]: 99.9%
Potency Assay (HPLC wt %) [3, 18]: 92.1 wt %
Total Impurities (%) [3, 18]: 0.12%
Water Content (%) [3, 18]: 3.7%
HPLC Assay (% Purity) [3, 19]: 99.9%
Potency Assay (HPLC wt %) [3, 19]: 89.6 wt %
Total Impurities (%) [3, 19]: 0.07%
Water Content (%) [3, 19]: 4.2%
XRPD analysis ([3]; Example 3, both storage conditions after 6 months): still consistent with the standard pattern
Appearance as a white powder ([3]; Example 3, over the 6 month period): remained unchanged
AUC0-∞ dependence on dose [4]: increased proportionally with dose
Increase in Cmax with dose [4]: less than dose-proportional

C[C@@H]1CN[C@@H](C2CC2)C(=O)N(C)[C@H](C)C(=O)N[C@H](Cc2ccc(F)cc2)C(=O)NCCCc2ccccc2O1 [compound 298]
Concurrent GH secretion (GH secretion): did not stimulate concurrent GH secretion
Safety and pharmacokinetic properties [5]: appropriate safety and pharmacokinetic properties
Efficacy for the treatment of POI (POI): efficacy
Efficacy for the treatment of diabetic gastroparesis (diabetic gastroparesis): efficacy

Fumarate
pH at 72 hr [6]: 3.6

From patent US20110245159A1, “Salts, Solvates and Pharmaceutical Compositions of Macrocyclic Ghrelin Receptor Agonists and Methods of Using the Same” (priority 2009, published 2011)
